Results published in patent EP1247803A2, “Indolinone compounds suitable for modulation of protein kinases” (Sugen, Inc., priority 1996, dated 1998).

The molecules below were run against T1, EGFR (Homo sapiens, UniProt P00533) (assay: EGFR ELISA assay (in vitro kinase activity, EGFR captured from A431 cell lysate)).
T1 construct: Add 7 ug A431 cell lysate per well (EGFR source); endogenous in cells; host or cells: A431
Assay type: biochemical
Parameters: concentration or dose not given beside the values
Outline: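 Receptor autophosphorylation was read by ELISA: anti-phosphotyrosine serum and an HRP-linked secondary with ABTS substrate, absorbance at 410 nm (reference 630 nm). The reaction ran 5 min with 3 µM ATP and 5 mM MnCl2 and was quenched by 20 mM EDTA. Compounds were first incubated 30 min with antibody-captured EGFR from A431 cell lysate.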

T1 sequence (P00533 25-1210): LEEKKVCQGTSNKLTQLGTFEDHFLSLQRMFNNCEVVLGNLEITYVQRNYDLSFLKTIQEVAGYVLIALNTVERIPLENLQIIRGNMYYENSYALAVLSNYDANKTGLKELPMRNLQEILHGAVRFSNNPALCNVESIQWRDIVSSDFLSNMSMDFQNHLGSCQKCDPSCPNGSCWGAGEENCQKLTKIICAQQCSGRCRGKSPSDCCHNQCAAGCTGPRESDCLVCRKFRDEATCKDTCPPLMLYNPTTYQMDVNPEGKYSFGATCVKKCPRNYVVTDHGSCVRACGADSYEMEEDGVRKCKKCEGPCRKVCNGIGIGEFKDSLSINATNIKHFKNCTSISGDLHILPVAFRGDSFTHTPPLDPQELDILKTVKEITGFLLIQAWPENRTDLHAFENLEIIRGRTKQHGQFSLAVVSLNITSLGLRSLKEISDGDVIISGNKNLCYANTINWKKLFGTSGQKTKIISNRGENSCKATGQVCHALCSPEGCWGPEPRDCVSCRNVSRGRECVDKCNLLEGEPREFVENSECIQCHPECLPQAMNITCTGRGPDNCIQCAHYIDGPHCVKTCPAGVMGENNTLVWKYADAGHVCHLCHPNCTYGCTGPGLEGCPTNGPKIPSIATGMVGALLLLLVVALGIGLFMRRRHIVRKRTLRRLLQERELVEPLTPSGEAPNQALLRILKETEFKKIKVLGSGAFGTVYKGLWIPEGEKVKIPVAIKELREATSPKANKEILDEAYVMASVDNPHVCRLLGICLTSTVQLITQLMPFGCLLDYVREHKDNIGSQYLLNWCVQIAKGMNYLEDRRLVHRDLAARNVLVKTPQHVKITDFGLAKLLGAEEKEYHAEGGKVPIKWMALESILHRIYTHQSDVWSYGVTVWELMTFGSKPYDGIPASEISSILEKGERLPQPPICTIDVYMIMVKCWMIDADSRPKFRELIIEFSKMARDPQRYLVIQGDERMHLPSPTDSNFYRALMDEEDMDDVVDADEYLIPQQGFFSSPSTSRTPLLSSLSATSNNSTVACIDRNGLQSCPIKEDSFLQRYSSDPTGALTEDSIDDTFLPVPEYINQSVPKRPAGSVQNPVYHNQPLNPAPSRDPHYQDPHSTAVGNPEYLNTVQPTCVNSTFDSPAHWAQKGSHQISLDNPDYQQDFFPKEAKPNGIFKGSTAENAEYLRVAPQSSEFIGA

In order of rising “Biochem EGFR %Inhibition” value:
1. O=C1Nc2ccc(S(=O)(=O)Nc3ccc(C(F)(F)F)cc3)cc2C1=Cc1ccc([N+](=O)[O-])o1 [10718/E11]  -15.2%
2. CCOc1cccc(C=C2C(=O)Nc3ccc(S(=O)(=O)Nc4ccc(C(F)(F)F)cc4)cc32)c1O [10734/E02]  -10.8%
3. CNS(=O)(=O)c1ccc2c(c1)C(=Cc1cc(Cl)ccc1O)C(=O)N2 [10734/D04]  -10.7%
4. CCN(CC)c1ccc(C=C2C(=O)Nc3ccc(S(=O)(=O)NC)cc32)c(O)c1 [10734/D05]  -9.6%
5. CCOc1cccc(C=C2C(=O)Nc3ccc(I)cc32)c1O [10734/B02]  -8.9%
6. O=C1Nc2ccc(S(=O)(=O)Nc3ccc(C(F)(F)F)cc3)cc2C1=Cc1ccco1 [10718/E10]  -7.5%
7. CCOc1cccc(C=C2C(=O)Nc3ccc(Br)c(C)c32)c1O [10734/C02]  -6.7%
8. CNS(=O)(=O)c1ccc2c(c1)C(=Cc1ccc(C(C)(C)C)cc1)C(=O)N2 [10734/D10]  -4.4%
9. COc1c(O)ccc(C=C2C(=O)Nc3ccc(CCCl)cc32)c1[N+](=O)[O-] [10733/G11]  -1.0%
10. CCOc1cccc(C=C2C(=O)Nc3c(Br)cc(Br)cc32)c1O [10734/A02]  0.0%
11. COc1c(O)ccc(C=C2C(=O)Nc3ccc(S(=O)(=O)N4CCOCC4)cc32)c1[N+](=O)[O-] [10733/F11]  0.6%
12. CNS(=O)(=O)c1ccc2c(c1)C(=Cc1ccc([N+](=O)[O-])cc1)C(=O)N2 [10734/D06]  1.3%
13. CC(C)(C)c1cc(C=C2C(=O)Nc3ccc(CCCl)cc32)cc(C(C)(C)C)c1OCc1ccccc1 [10733/G05]  1.5%
14. CCOC(=O)c1cc(C=C2C(=O)Nc3ccc(S(=O)(=O)Nc4ccc(C(F)(F)F)cc4)cc32)oc1C [10718/E06]  2.0%
15. CCOc1cccc(C=C2C(=O)Nc3ccc(S(=O)(=O)NC)cc32)c1O [10734/D02]  5.2%
16. O=C1Nc2c(Br)cc(Br)cc2C1=Cc1cccc(F)c1O [10734/A08]  6.8%
17. O=C1Nc2ccc(S(=O)(=O)Nc3ccc(C(F)(F)F)cc3)cc2C1=Cc1ccc(Cl)c([N+](=O)[O-])c1 [10718/E08]  9.3%
18. CCN(CC)c1ccc(C=C2C(=O)Nc3ccc(Br)c(C)c32)c(O)c1 [10734/C05]  9.3%
19. COc1c(C(C)(C)C)cc(C=C2C(=O)Nc3ccc(CCCl)cc32)cc1C(C)(C)C [10733/G04]  10.6%
20. COc1c([N+](=O)[O-])cc(C=C2C(=O)Nc3ccc(S(=O)(=O)Nc4ccc(C(F)(F)F)cc4)cc32)cc1C(C)(C)C [10733/E03]  10.7%
21. CC(C)(C)c1cc(C=C2C(=O)Nc3ccc(S(=O)(=O)N4CCOCC4)cc32)cc(I)c1OCc1ccccc1 [10733/F02]  11.3%
22. O=C1Nc2c(Br)cc(Br)cc2C1=Cc1cc(Cl)ccc1O [10734/A04]  11.4%
23. CNS(=O)(=O)c1ccc2c(c1)C(=Cc1ccc(Br)s1)C(=O)N2 [10734/D11]  14.6%
24. O=C1Nc2c(Br)cc(Br)cc2C1=Cc1cc(Br)cc(Br)c1O [10734/A07]  15.2%
25. O=C1Nc2ccc(S(=O)(=O)Nc3ccc(C(F)(F)F)cc3)cc2C1=Cc1ccc2ccccc2c1O [10718/E04]  16.4%
26. Cc1c(O)ccc(C=C2C(=O)Nc3ccc(S(=O)(=O)Nc4ccc(C(F)(F)F)cc4)cc32)c1O [10718/E09]  17.0%
27. COc1cc(Br)cc(C=C2C(=O)Nc3ccc(S(=O)(=O)N4CCOCC4)cc32)c1O [10733/F08]  17.2%
28. CCN(CC)c1ccc(C=C2C(=O)Nc3ccc(I)cc32)c(O)c1 [10734/B05]  17.8%
29. Cc1cc(C=C2C(=O)Nc3ccc(CCCl)cc32)cc(C)c1OCc1ccccc1 [10733/G07]  18.1%
30. O=C1Nc2ccc(CCCl)cc2C1=Cc1cc([N+](=O)[O-])ccc1O [10733/G10]  18.2%
31. Cc1c(Br)ccc2c1C(=Cc1ccc([N+](=O)[O-])cc1)C(=O)N2 [10734/C06]  18.4%
32. Cc1cc(C=C2C(=O)Nc3ccc(S(=O)(=O)N4CCOCC4)cc32)cc(C)c1OCc1ccccc1 [10733/F07]  19.2%
33. O=C1Nc2ccc(I)cc2C1=Cc1cccc(F)c1O [10734/B08]  19.3%
34. CNS(=O)(=O)c1ccc2c(c1)C(=Cc1cc(Cl)cc(Cl)c1O)C(=O)N2 [10734/D03]  19.6%
35. Cc1cc(C=C2C(=O)Nc3ccc(S(=O)(=O)Nc4ccc(C(F)(F)F)cc4)cc32)cc(C)c1OCc1ccccc1 [10733/E07]  19.9%
36. CNS(=O)(=O)c1ccc2c(c1)C(=Cc1ccc(O)c(Br)c1)C(=O)N2 [10734/D09]  21.0%
37. O=C1Nc2ccc(S(=O)(=O)N3CCOCC3)cc2C1=Cc1cc([N+](=O)[O-])ccc1O [10733/F10]  21.9%
38. CCN(CC)c1ccc(C=C2C(=O)Nc3c(Br)cc(Br)cc32)c(O)c1 [10734/A05]  22.6%
39. Cc1c(Br)ccc2c1C(=Cc1cccc(F)c1O)C(=O)N2 [10734/C08]  35.1%
40. COc1c(C)cc(C=C2C(=O)Nc3ccc(S(=O)(=O)Nc4ccc(C(F)(F)F)cc4)cc32)cc1C [10733/E06]  37.3%
41. Cc1c(Br)ccc2c1C(=Cc1cc(Cl)ccc1O)C(=O)N2 [10734/C04]  38.1%
42. O=C1Nc2ccc(CCCl)cc2C1=Cc1cc(Br)ccc1O [10733/G09]  38.7%
43. Cc1c(Br)ccc2c1C(=Cc1cc(Br)cc(Br)c1O)C(=O)N2 [10734/C07]  41.0%
44. COc1cc(Br)cc(C=C2C(=O)Nc3ccc(CCCl)cc32)c1O [10733/G08]  44.2%
45. COc1c(C(C)(C)C)cc(C=C2C(=O)Nc3ccc(S(=O)(=O)Nc4ccc(C(F)(F)F)cc4)cc32)cc1C(C)(C)C [10733/E04]  45.4%
46. O=C1Nc2ccc(I)cc2C1=Cc1ccc(Br)s1 [10734/B11]  50.9%
47. O=C1Nc2ccc(I)cc2C1=Cc1ccc([N+](=O)[O-])cc1 [10734/B06]  54.0%
48. COc1cc(Br)cc(C=C2C(=O)Nc3ccc(S(=O)(=O)Nc4ccc(C(F)(F)F)cc4)cc32)c1O [10733/E08]  54.2%
49. O=C1Nc2ccc(S(=O)(=O)Nc3ccc(C(F)(F)F)cc3)cc2C1=Cc1cc(Cl)cc(Cl)c1O [10734/E03]  55.0%
50. Cc1[nH]c(C=C2C(=O)Nc3c(Br)cc(Br)cc32)c(Br)c1Br [10717/A11]  59.9%
51. CC(C)(C)c1ccc(C=C2C(=O)Nc3ccc(I)cc32)cc1 [10734/B10]  60.7%
52. O=C1Nc2ccc(I)cc2C1=Cc1cc(Br)cc(Br)c1O [10734/B07]  65.5%
53. O=C1Nc2ccc(S(=O)(=O)Nc3ccc(C(F)(F)F)cc3)cc2C1=Cc1cc(Br)ccc1O [10733/E09]  72.4%
54. COc1c(C(C)(C)C)cc(C=C2C(=O)Nc3ccc(S(=O)(=O)N4CCOCC4)cc32)cc1C(C)(C)C [10733/F04]  76.3%
55. CC(C)(C)c1cc(C=C2C(=O)Nc3ccc(S(=O)(=O)N4CCOCC4)cc32)cc(C(C)(C)C)c1OCc1ccccc1 [10733/F05]  84.6%
